Source: patent publication US20100197753A1, “Benzamides Useful as S1P Receptor Modulators” (Novartis AG, priority 2007, published 2010)
pEC50: −log10 of the molar value.

Key:
Assay type in all cases: biochemical
human S1P5 receptor = molecular target: T1, human S1P5 receptor (Homo sapiens, UniProt Q9H228); assay: 35S-GTPγS binding assay (Test 1), S1P5; conditions: membrane protein of transfected CHO cells, SPA; for pEC50: read-out: EC50, receptor subtype S1P5
T1 construct: expressed in transfected cells; host or cells: CHO-K1 (ATCC CCL 61); RH7777 may also be used
Method: (§1) Test 1: ^35S-GTPγS Binding Assay
(§2) The S1P receptor modulating properties of an agent of the invention are tested on the human S1P1, S1P2, S1P3, S1P4 and S1P5, respectively, receptor subtypes. The functional receptor activation is assessed by quantifying the compound-induced ^35S-GTPγS binding to membrane protein prepared from transfected heterologous cells stably expressing the appropriate S1P receptor subtype. CHO cells (CHO-K1, Chinese hamster, ATCC no. CCL 61) are used [RH7777 cells (rat Morris hepatoma, ATCC no. CRL 1601) may also be used]. The membrane protein is prepared from wild-type cells and from different cell clones expressing the appropriate S1P receptor subtype. The assay technology used is SPA (scintillation proximity based assay). A DMSO solution of the test compound is serially diluted and added to SPA-bead (Amersham-Pharmacia) immobilised S1P receptor subtype expressing membrane protein (1 to 20 μg/well) in the presence of 50 mM HEPES, 100 mM NaCl, 10 mM MgCl2, 10 μM GDP, 0.1% fat free BSA and 0.2 nM ^35S-GTPγS (1200 Ci/mmol) (pH 7.4). After incubation in 96 well microtiter plates at room temperature for 120 minutes, the unbound ^35S-GTPγS is separated by centrifugation. The luminescence of SPA beads triggered by membrane bound ^35S-GTPγS is quantified with a TOPcount plate reader (Packard). To evaluate the S1P receptor modulation, the stimulation (in %) compared to the baseline is calculated as the binding in the presence of the compound divided by the binding in the absence of a ligand, multiplied by 100. Dose response curves are plotted using a non-linear regression curve fitting program, and the EC50 is defined as the concentration of the compound required to give 50% of its maximum stimulation. Preferably, the EC50 value of an agent of the invention in this test is 10′000 nM or less. The selectivity of the compound towards the S1P receptor subtypes is determined by measuring for each of the different S1P receptor subtypes the level of ^35S-GTPγS binding in the presence of the compound using each of the different membrane proteins.

human S1P1 receptor = molecular target: T2, human S1P1 receptor (Homo sapiens, UniProt P21453); assay: 35S-GTPγS binding assay (Test 1), S1P1; conditions: membrane protein of transfected CHO cells, SPA; for pEC50: read-out: EC50, receptor subtype S1P1
T2 construct: expressed in transfected cells; host or cells: CHO-K1 (ATCC CCL 61); RH7777 may also be used
Method: as §1, §2

human S1P4 receptor = molecular target: T3, human S1P4 receptor (Homo sapiens, UniProt O95977); assay: 35S-GTPγS binding assay (Test 1), S1P4; conditions: membrane protein of transfected CHO cells, SPA; for pEC50: read-out: EC50, receptor subtype S1P4
T3 construct: expressed in transfected cells; host or cells: CHO-K1 (ATCC CCL 61); RH7777 may also be used
T3 sequence (O95977 1-384): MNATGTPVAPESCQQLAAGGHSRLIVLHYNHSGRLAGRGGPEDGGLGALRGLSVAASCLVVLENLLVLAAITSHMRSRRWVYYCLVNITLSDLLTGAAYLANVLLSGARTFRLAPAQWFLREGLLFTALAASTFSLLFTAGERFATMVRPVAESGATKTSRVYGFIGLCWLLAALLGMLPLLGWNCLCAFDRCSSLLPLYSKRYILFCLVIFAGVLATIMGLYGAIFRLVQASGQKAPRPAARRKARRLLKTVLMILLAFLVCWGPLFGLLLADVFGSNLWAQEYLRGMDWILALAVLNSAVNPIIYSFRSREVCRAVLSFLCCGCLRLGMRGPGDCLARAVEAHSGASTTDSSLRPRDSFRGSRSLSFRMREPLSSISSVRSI
Method: as §1, §2

T2 sequence (P21453 whole entry): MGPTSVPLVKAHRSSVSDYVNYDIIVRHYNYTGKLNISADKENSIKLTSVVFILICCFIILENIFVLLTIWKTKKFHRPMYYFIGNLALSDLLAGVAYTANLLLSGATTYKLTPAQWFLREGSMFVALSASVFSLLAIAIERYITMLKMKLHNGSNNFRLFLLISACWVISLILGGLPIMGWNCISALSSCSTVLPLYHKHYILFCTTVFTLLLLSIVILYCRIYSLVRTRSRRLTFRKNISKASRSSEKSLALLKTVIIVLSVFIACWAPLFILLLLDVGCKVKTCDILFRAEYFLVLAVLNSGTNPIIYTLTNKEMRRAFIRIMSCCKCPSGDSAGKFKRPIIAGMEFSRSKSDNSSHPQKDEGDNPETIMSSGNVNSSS
T1 sequence (Q9H228 whole entry): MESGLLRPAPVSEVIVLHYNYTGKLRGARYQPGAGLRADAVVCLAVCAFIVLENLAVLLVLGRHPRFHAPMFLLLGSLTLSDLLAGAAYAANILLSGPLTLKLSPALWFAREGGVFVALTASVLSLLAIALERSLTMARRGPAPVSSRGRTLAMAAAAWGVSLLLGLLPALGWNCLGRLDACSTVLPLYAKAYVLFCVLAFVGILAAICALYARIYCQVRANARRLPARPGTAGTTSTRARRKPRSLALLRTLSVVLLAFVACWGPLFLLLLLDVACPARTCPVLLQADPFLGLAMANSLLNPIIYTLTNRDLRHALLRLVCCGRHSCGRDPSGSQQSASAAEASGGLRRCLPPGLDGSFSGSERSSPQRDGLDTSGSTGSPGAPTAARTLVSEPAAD

Row | efficacy, receptor subtype S1P5 (human S1P5 receptor) [%] | pEC50 (human S1P5 receptor) | efficacy, receptor subtype S1P1 (human S1P1 receptor) [%] | pEC50 (human S1P1 receptor) | efficacy, receptor subtype S1P4 (human S1P4 receptor) [%] | pEC50 (human S1P4 receptor) | SMILES
1 | 66 | 7.05 | 93 | 6.82 | 109 | 6.80 | Cc1cc(C)c(Nc2ccc(Cl)cc2C(N)=O)c(C)c1 [Example 37, 5-Chloro-2-(2,4,6-trimethyl-phenylamino)-benzamide]
2 | 93 | 7.60 | 85 | 6.31 | 130 | 6.97 | CCCn1nccc1-c1ccc(Nc2c(C)cc(C)cc2C)c(C(N)=O)c1 [Example 27, 5-(2-Propyl-2H-pyrazol-3-yl)-2-(2,4,6-trimethyl-phenylamino)-benzamide]
3 | 64 | 7.10 | 87 | 6.52 | 126 | 6.68 | COc1ccc(Nc2c(C)cc(C)cc2C)c(C(N)=O)c1 [Example 36, 5-Methoxy-2-(2,4,6-trimethyl-phenylamino)-benzamide]
